Results taken from ChEMBL document CHEMBL2021815, “Metabolism of 4-Aminopiperidine Drugs by Cytochrome P450s: Molecular and Quantum Mechanical Insights into Drug Design” (ACS Med Chem Lett, 2011).

How the values were obtained:
Format in all cases: ADME, Microsome
[1] = molecular target: CYP3A4 (Homo sapiens, UniProt P08684); test: Half life in human liver microsomes assessed as CYP3A4-mediated parent compound depletion at 1 uM
[2] = molecular target: CYP2D6 (Homo sapiens, UniProt P10635); test: Half life in human liver microsomes assessed as CYP2D6-mediated parent compound depletion at 1 uM
CYP2D6, sequence (P10635 whole entry): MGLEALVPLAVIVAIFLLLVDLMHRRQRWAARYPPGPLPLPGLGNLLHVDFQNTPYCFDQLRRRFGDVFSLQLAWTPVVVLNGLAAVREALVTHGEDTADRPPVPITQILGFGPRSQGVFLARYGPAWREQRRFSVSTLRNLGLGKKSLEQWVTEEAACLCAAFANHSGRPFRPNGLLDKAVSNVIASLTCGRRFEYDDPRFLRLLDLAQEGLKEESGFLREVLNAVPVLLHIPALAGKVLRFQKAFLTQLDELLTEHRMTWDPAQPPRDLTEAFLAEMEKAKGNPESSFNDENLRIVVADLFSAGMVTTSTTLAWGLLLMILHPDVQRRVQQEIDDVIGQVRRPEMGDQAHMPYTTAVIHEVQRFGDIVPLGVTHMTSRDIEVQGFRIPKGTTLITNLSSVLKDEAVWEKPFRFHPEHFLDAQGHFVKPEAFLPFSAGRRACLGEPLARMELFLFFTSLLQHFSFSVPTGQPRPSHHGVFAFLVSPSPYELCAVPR

[3] = molecular target: T1, CYP2B6 (Homo sapiens, UniProt P20813); test: Half life in human liver microsomes assessed as CYP2B6-mediated parent compound depletion at 1 uM
T1 sequence (P20813 whole entry): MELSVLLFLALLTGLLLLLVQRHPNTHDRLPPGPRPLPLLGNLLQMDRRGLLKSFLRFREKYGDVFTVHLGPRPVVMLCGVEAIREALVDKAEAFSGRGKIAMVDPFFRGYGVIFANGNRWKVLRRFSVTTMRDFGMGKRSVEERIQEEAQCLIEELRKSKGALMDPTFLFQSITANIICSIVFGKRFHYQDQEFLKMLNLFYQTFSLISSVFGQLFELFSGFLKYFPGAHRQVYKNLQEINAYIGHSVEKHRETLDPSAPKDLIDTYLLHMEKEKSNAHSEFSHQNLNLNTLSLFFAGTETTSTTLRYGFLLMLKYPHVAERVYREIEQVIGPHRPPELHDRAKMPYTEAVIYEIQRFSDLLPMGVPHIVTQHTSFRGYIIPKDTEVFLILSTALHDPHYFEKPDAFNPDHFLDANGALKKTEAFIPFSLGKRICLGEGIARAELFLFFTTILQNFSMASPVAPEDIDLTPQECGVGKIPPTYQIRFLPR

[4] = molecular target: T2, CYP2C8 (Homo sapiens, UniProt P10632); test: Half life in human liver microsomes assessed as CYP2C8-mediated parent compound depletion at 1 uM
T2 sequence (P10632 whole entry): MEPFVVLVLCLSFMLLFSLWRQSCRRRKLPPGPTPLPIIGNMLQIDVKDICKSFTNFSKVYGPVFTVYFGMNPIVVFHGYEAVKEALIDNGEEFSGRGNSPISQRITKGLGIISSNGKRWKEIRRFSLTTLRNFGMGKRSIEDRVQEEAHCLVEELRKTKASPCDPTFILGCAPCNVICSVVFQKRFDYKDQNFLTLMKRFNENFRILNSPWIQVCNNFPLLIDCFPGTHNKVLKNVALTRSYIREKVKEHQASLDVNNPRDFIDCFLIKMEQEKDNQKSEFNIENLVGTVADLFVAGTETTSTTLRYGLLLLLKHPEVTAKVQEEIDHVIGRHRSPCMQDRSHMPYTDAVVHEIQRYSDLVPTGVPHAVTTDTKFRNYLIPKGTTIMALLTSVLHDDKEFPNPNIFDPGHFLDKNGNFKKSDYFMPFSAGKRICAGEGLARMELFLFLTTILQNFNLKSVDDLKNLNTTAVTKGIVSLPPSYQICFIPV

[5] = molecular target: CYP2C9 (Homo sapiens, UniProt P11712); test: Half life in human liver microsomes assessed as CYP2C9-mediated parent compound depletion at 1 uM
CYP2C9, sequence (P11712 whole entry): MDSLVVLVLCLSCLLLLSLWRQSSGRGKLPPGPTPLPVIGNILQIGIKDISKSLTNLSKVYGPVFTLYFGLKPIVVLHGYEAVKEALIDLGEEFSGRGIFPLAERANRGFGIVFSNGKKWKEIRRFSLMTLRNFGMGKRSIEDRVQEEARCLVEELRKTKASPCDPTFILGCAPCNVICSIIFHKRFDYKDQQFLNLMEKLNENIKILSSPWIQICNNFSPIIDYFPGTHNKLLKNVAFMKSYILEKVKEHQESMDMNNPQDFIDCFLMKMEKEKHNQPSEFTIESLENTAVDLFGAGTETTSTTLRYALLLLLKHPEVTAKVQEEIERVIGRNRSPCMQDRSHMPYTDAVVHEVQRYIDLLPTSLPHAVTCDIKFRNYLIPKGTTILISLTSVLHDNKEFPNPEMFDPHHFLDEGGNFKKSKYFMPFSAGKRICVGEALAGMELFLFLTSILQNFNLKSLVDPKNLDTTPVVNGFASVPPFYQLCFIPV

[6] = molecular target: CYP2C19 (Homo sapiens, UniProt P33261); test: Half life in human liver microsomes assessed as CYP2C19-mediated parent compound depletion at 1 uM
CYP2C19, sequence (P33261 whole entry): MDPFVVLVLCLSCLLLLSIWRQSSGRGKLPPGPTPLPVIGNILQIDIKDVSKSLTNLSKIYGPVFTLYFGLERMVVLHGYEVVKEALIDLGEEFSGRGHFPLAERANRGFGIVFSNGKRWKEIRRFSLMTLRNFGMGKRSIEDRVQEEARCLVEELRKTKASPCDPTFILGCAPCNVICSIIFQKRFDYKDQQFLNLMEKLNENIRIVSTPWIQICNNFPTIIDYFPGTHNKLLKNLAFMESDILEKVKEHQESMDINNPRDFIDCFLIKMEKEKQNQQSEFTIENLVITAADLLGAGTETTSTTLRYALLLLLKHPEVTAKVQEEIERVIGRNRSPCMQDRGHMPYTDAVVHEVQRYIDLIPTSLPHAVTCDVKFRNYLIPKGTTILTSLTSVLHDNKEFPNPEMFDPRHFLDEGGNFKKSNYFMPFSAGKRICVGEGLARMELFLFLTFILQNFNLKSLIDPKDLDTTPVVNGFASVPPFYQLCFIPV

[7] = molecular target: T3, CYP1A2 (Homo sapiens, UniProt P05177); test: Half life in human liver microsomes assessed as CYP1A2-mediated parent compound depletion at 1 uM
T3 sequence (P05177 whole entry): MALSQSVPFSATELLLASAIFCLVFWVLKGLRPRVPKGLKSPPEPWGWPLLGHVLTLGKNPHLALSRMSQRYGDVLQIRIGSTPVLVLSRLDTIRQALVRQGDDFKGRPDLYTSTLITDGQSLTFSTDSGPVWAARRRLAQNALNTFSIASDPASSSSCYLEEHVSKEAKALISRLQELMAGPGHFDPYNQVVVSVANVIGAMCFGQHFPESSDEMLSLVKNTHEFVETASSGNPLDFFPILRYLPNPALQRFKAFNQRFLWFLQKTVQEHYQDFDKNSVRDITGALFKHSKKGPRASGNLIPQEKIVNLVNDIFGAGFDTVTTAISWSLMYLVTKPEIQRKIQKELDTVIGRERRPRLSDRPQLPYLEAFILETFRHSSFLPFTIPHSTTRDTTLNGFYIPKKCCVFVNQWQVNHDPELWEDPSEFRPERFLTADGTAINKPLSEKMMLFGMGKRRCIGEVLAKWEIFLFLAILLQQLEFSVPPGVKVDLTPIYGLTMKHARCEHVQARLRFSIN

[8] = system: Liver microsomes; test: Clearance in human liver microsomes at 1 uM

CYP3A4, sequence (P08684 whole entry): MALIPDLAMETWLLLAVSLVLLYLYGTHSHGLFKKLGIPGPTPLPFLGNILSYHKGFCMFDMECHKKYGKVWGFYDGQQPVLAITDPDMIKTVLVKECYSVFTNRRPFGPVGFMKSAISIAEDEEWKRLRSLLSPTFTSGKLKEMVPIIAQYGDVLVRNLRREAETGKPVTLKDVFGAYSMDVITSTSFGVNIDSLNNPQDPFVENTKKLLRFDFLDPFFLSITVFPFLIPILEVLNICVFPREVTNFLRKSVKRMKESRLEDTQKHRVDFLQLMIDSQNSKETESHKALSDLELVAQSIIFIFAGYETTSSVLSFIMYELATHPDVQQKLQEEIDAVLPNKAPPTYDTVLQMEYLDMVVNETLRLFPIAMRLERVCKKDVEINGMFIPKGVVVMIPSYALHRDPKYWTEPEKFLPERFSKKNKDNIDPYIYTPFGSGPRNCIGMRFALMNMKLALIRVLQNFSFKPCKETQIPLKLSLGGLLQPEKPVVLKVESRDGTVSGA

SMILES	half-life at 1 µM [1] [h]	half-life at 1 µM [2] [h]	half-life at 1 µM [3] [h]	half-life at 1 µM [4] [h]	half-life at 1 µM [5] [h]	half-life at 1 µM [6] [h]	half-life at 1 µM [7] [h]	Intrinsic clearance in liver microsomes [8] [µL/min/mg]	CLH [8] [µL/min/mg]
COc1ccc(CCN2CCC(Nc3nc4ccccc4n3Cc3ccc(F)cc3)CC2)cc1 [ASTEMIZOLE]	0.025	0.0667	> 1	> 1	> 1	> 1	> 1	136	
O=C(CCCN1CCC(n2c(O)nc3ccccc32)CC1)c1ccc(F)cc1 [BENPERIDOL]	0.055	0.173	> 1	0.73	> 1	> 1	> 1		42
COc1cc(N)c(Cl)cc1C(=O)NC1CCN(CCCOc2ccc(F)cc2)CC1OC (stereo unspecified) [CISAPRIDE]		> 1	> 1	> 1	> 1	> 1	> 1	120.7	
COc1cc(N)c(Cl)cc1C(=O)NC1CCN(Cc2ccccc2)CC1 [CLEBOPRIDE]	< 0.0833	> 1	> 1	> 1	> 1	> 1	> 1	50.4	
O=c1[nH]c2ccccc2n1CCCN1CCC(n2c(=O)[nH]c3cc(Cl)ccc32)CC1 [DOMPERIDONE]									108.6
O=C(NC1CCN(CCc2c[nH]c3ccccc23)CC1)c1ccccc1 [INDORAMIN]	0.267	< 0.0833	> 1	> 1	> 1	> 1	> 1	46.4	
O=c1[nH]c2ccccc2n1C1CCN(CCCC(c2ccc(F)cc2)c2ccc(F)cc2)CC1 [PIMOZIDE]	0.045	0.0533	> 1	> 1	> 1	> 1	> 1		57
CN(c1nc2ccccc2s1)C1CCN(CC(O)COc2ccc(F)cc2)CC1 (stereo unspecified) [SABELUZOLE]	< 0.0833	0.025	> 1	> 1	> 1	> 1	> 1	37	
